# Source: US9592214B2, “Compounds for the treatment of autism in a baby child” (INSERM (INSTITUT NATIONAL DE LA SANTE ET DE LA RECHERCHE …, priority 2010, dated 2017)
# Experiments:
# [1] = system: hippocampal CA3 pyramidal cells; assay: Acute application of bumetanide to hippocampal slices: DFGABA from cell-attached single GABAA channel recordings; type: cell-based, rat; details: acute bumetanide 10 μM
# Description: Time-mated female Wistar rats at gestational day E7-8 were housed under standard laboratory conditions. […] The offspring were used for experiments on embryonic day 20 (E20) and postnatal (P) days 0, 2, 4, 7, 15 and 30 (after being weaned at P23). Experiments were carried out on offspring of either sex.
# Hippocampal slices (300-500 nm thick) were prepared using a Microm tissue slicer (International GmbH, Germany) as described previously (Tyzio et al. 2006 Science 314, 1788; Tyzio et al, 2008, Eur J. Neurosci. 27(10):2515-28). Slices were kept in oxygenated (95% O2/5% CO2) artificial cerebrospinal fluid (ACSF) of the following composition (in mM): NaCl 126, KCl 3.5, CaCl2 2.0, MgCl2 1.3, NaHCO3 25, NaH2PO4 1.2 and glucose 11 (pH 7.4) at room temperature (20-22° C.) at least 1 hour before use.
# Bumetanide (10 μM), Oxytocin (1 μM) and Isoguvacine (2 μM) were directly added to the perfusion solutions. […] All drugs used were purchased from Sigma.
# [2] = system: hippocampal CA3 pyramidal cells; assay: DFGABA in hippocampal CA3 pyramidal cells of offspring after in utero VPA / maternal bumetanide pretreatment; type: in vivo, rat; details: for DFGABA (mV), mean ± S.E.: P15 VPA rats, maternal bumetanide pretreatment (2-2.5 mg/kg in drinking water, 1 day before delivery)
# Description: (§1) Time-mated female Wistar rats at gestational day E7-8 were housed under standard laboratory conditions. The in utero valproic acid (VPA) rodent model of autism spectrum disorders has been previously described in detail. Briefly, the sodium salt of VPA (Sigma-Aldrich) was dissolved in physiological saline solution to a concentration of 300 mg/ml. Pregnant rats received a single intra-peritoneal dose of 600 mg/kg on gestational day 12 (E12). The control dams received a single similar volume injection of saline at the same gestational time-point. Dams were housed individually and allowed to raise their own litters. The offspring were used for experiments on embryonic day 20 (E20) and postnatal (P) days 0, 2, 4, 7, 15 and 30 (after being weaned at P23). Experiments were carried out on offspring of either sex.
# (§2) Experiments were performed on fetuses and neonatal rat pups. We removed E20 rats from deeply anesthetized dams [subcutaneous injection of a mixture of xylazine (Rompun 2%; used at 0.05%) and ketamine (Imalgene 1000 used at 50 g/l)]. Hippocampal slices ([…] thick) were prepared using a Microm tissue slicer (International GmbH, Germany) as described previously (Tyzio et al. 2006 Science 314, 1788; Tyzio et al, 2008, Eur J. Neurosci. 27(10):2515-28). Slices were kept in oxygenated (95% O2/5% CO2) artificial cerebrospinal fluid (ACSF) of the following composition (in mM): NaCl 126, KCl 3.5, CaCl2 2.0, MgCl2 1.3, NaHCO3 25, NaH2PO4 1.2 and glucose 11 (pH 7.4) at room temperature (20-22° C.) at least 1 hour before use.
# For recordings, slices were placed into a conventional fully submerged chamber superfused with ACSF at a rate of 2-3 ml/min at room temperature. Patch clamp recordings from visually identified CA3 pyramidal cells in cell-attached configuration were performed using EPC-10 amplifier (HEKA Elektronik Dr. Schulze GmbH, Lambrecht/Pfalz, Germany). Patch pipette solution for recordings of single GABAA channels contained (in mM): NaCl 120, KCl 5, TEA-Cl 20, 4-aminopyridine 5, CaCl2 0.1, MgCl2 10, glucose 10, Hepes-NaOH 10 buffered to pH 7.2-7.3 and GABA 2 μM. Analysis of currents through single channels and current-voltage relationships were performed using Clampfit 9.2 (Axon Instruments, Union City, Calif.). Recordings were digitized (10 kHz) online with Digidata-1200 interface card (Axon Instruments, Union City, Calif.) and analyzed offline with Axon package, MiniAnalysis (S (Synaptsoft, Decatur, Ga.), and Origin (Microcal Software, Northampton, Mass.).
# (§3) Bumetanide (10 μM), Oxytocin (1 μM) and Isoguvacine (2 μM) were directly added to the perfusion solutions. Bumetanide pretreatment (2-2.5 mg/kg) was given to the dams in drinking water. All drugs used were purchased from Sigma. SSR126768A (Sanofi-Synthelabo) pretreatment (1 mg/kg) was given to the dams in drinking water.
# If the polarity of GABA actions at delivery produces long terms effects in offsprings, then restoring low [Cl^−]i and inhibitory GABA at delivery might restore physiological parameters in juvenile rodents. To test this hypothesis, pregnant females were treated orally 1 day before delivery with bumetanide (2-2.5 mg/kg in drinking water) and juvenile offspring neurons recorded at P15. […] In VPA rats, GABAergic inputs are excitatory and contribute to hyperexcitability of the network. Bumetanide decreases [Cl^−]i and consequently reduces contribution of excitatory GABAergic inputs in the overall network activity.
# hippocampal slices = assay: Effects of isoguvacine on spike frequency, extracellular field potential recordings in hippocampal slices; type: cell-based, rat; details: for Effects of isoguvacine on frequency of spikes in extracellular recordings (% of control), mean ± S.E.: VPA rats with maternal bumetanide pretreatment, P15
# Description: as §2
# Extracellular field potentials and multi-unit activity (MUA) recordings Recording were made in the hippocampal slices using tungsten wire electrodes (diameter: 50 μm, California Fine Wire, Grover Beach, Calif.) and a low-noise multichannel DAM-8A amplifiers (WPI, GB; […]; gain: ×1000). The signals were digitized using an analogue-to-digital converter (Digidata 1440A, Axon Instruments, USA). pCLAMP 10.1, Clampfit 10.1 (Axon Instruments, USA), MiniAnalysis 6.03 (Synaptosoft, Decatur, Calif.) and Origin 7.5 (Microcal Software, USA) programs were used for the acquisition and analysis of the synaptic activities. Sampling interval per signal was 100 microseconds (10 kHz).
# as §3
# [3] = system: Valproate rat model of autism; assay: In vivo EEG recordings in the CA3 area of hippocampus of head-restrained rats; details: for Integral power spectra of EEG recordings, mean ± S.E.M.: VPA rats with maternal BUM pretreatment, P13-15
# Description: as §1
# Head-fixed rat pups of age P13-P15 were prepared for extracellular recording under isoflurane anesthesia. The skin and periosteum were removed from the skull, which was then covered by glue and dental cement except for a 4-9 mm^2 window above the somatosensory cortex from one or two hemispheres for the silicon probe penetration (4.0-4.2 mm lateral to midline and 2.2-2.5 mm caudal to bregma) and for the reference electrode (1.0-1.5 mm lateral to midline and 6.0-6.5 mm caudal to bregma). The rat was positioned in the stereotaxic apparatus. A 1 mm-diameter burr hole was drilled in the skull; the dura was cut and removed. Recordings were made 1 h after recovery from anesthesia. Pups were kept restrained for <3 h and were closely monitored for signs of stress and to ensure that they spent a normal proportion of their time sleeping. The outside temperature was maintained between 35 and 36° C. The animals were kept in low-light conditions throughout all experiments. 16-site linear silicone probe (NeuroNexus Technologies) coupled to a direct-current amplifier (Molecular Devices) and dunked previously in fluorescent dye (DiI, Invitrogen) was slowly penetrated via the hole at […] depth under the angle 30° in the coronal plane. EEGs were recorded during 2 hours, using a 16-channel amplifier (A-M System, Inc.) and digitized at 5 kHz using Axoscope software (Molecular Deviced). Recordings were amplified and high-pass filtered at 0.3 Hz in Axoscope. Silicone probe location was verified postmortem via dye localization. To quantify the frequency band integral power the traces were band-pass filtered at frequency bands […]) θ-(4-7 Hz), α-(7-12 Hz), β-(12-25 Hz), Low γ-(25-60 Hz), High γ-(60-120 Hz) and Fast oscillations-(120-500 Hz)). Fast Fourier Transform (FFT) was applied with Clampfit (Molecular Devices). Integrals of FFT power spectra were taken and averaged with OriginPro (OriginLab Corporation).
# as §3
# [4] = P15 VPA offspring, maternal bumetanide pretreatment, result in words
compound,measurement,setting,value
CCCCNc1cc(C(=O)O)cc(S(N)(=O)=O)c1Oc1ccccc1 [bumetanide],[Cl−]i,"[1]; P0 VPA neurons, result in words",significantly decreased
same,"DFGABA mV), mean±",[1]; P0 VPA rats,−2.4 ± 1.2 (n = 21) mV
same,"DFGABA mV), mean±",[1]; P0 control rats,−5.3 ± 0.7 (n = 17) mV
same,DFGABA values in offsprings,[2]; [4],restored control DFGABA values
same,"DFGABA (mV), mean ± S.E.",[2],0.4±1.1 mV
same,"DFGABA (mV), mean ± S.E.",[2]; listed as BUM,0.4 ± 1.1 (n = 58) mV
same,excitatory actions of the GABAAR agonist isoguvacine,hippocampal slices; [4],suppressed the excitatory actions
same,"Effects of isoguvacine on frequency of spikes in extracellular recordings (% of control), mean ± S.E.",hippocampal slices,82.8±10.7 % of control
same,"Effects of isoguvacine on frequency of spikes in extracellular recordings (% of control), mean ± S.E.",hippocampal slices; listed as BUM,"82.8 ± 10.7 (n = 9), P < 0.05 % of control"
same,EEG oscillatory hyperactivity and power of network oscillations,"[3]; P13-P15 VPA offspring, maternal bumetanide pretreatment, result in words",abolished hyperactivity and restored physiological values
same,"Integral power spectra of EEG recordings, mean ± S.E.M.",[3]; frequency band 0.5-4 Hz,88.53 ± 27.57
same,"Integral power spectra of EEG recordings, mean ± S.E.M.",[3]; frequency band 4-7 Hz,15.40 ± 4.25
same,"Integral power spectra of EEG recordings, mean ± S.E.M.",[3]; frequency band 7-12 Hz,7.09 ± 1.56
same,"Integral power spectra of EEG recordings, mean ± S.E.M.",[3]; frequency band 12-25 Hz,6.35 ± 1.52
same,"Integral power spectra of EEG recordings, mean ± S.E.M.",[3]; frequency band 25-60 Hz,0.97 ± 0.20
same,"Integral power spectra of EEG recordings, mean ± S.E.M.",[3]; frequency band 60-120 Hz,0.32 ± 0.06
same,"Integral power spectra of EEG recordings, mean ± S.E.M.",[3]; frequency band 120-500 Hz,1.18 ± 0.19
